# Data taken from patent publication US20070207967A1, “Peptide Inhibitors of Matrix Metalloproteinase Activity” (CTT CANCER TARGETING TECHNOLOGIES OY, priority 2004, published 2007).
# How the values were obtained:
# HT1080 cells = test: Pericellular proteolysis (gelatinolysis) of HT1080 cells; type: cell-based, human; conditions: HT1080, 48 h, PDBu, fibronectin/FITC-labelled gelatin coating
# Experimental: Pericellular proteolysis. Microtiter wells were coated with a mixture of fibronectin (10 μg/ml) and FITC-labelled gelatin (100 μg/ml) followed by saturation with 1% BSA in PBS. HT1080 cells (50 000 in 100 μl 0.1% BSA/DMEM) were incubated in the presence of 20 nM PDBu (4β-phorbol-12,13-dibutyrate, SigmaAldrich) and the peptides or the MMP-2/MMP-9 selective inhibitor InhI (Calbiochem). As a control non-activated cells and medium without the cells were used. Gelatinolysis after 48 hours was measured as the increase of fluorescence from a 50 μl aliquot of the conditioned medium using Wallac Victor^2 reader.
# uPAR [1] = test: uPAR cleavage on HT1080 cells; type: cell-based, human; conditions: for Inhibition of uPAR cleavage: HT1080, InhI 20 μM, aprotinin 25 μg/ml, benzamidine 20 μM, 48 h
# Description: (§1) uPAR clevage. […] Chymotrypsin cleavage was done without aprotinin.
# uPAR [2] = test: uPAR cleavage on THP-1 cells; type: cell-based, human; conditions: InhI 20 μM, CTT 200 μM, aprotinin 25 μg/ml
# Description: as §1
# trypsin-activated MMP-9 = trypsin-activated MMP-9 (Homo sapiens, UniProt P14780); test: Gelatinase inhibition assay (gelatin degradation), MMP-9; type: biochemical; conditions: biotinylated gelatin substrate
# trypsin-activated MMP-9, sequence (P14780 107-707 limits assumed): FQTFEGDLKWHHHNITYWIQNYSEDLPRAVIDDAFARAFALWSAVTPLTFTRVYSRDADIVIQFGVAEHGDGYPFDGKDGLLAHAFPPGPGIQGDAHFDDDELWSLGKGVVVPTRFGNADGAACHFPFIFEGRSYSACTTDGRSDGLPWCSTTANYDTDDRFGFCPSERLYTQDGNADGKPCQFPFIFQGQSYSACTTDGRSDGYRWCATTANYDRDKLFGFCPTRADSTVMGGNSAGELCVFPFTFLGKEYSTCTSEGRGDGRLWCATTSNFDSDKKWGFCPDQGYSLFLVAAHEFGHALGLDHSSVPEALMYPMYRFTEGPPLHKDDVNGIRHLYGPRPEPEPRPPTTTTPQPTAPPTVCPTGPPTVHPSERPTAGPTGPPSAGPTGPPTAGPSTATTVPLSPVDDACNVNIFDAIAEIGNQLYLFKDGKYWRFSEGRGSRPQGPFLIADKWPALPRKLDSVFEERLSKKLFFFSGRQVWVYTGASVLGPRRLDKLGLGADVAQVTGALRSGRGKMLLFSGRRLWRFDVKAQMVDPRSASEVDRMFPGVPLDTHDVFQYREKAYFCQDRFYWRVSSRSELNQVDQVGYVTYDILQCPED
# Experimental: (§2) Gelatinase inhibition assay. Inhibition of aminophenylmercuric acetate (APMA)-activated MMP-2 and trypsin-activated MMP-9 was performed using biotinylated gelatin as a substrate (15).
# gelatinase [3] = test: Gelatin degradation assay, gelatinase not specified; type: biochemical
# Experimental: as §2
# THP-1 monocytic cells = test: THP-1 cell migration on GST-LLG-C4; type: cell-based, human; conditions: GST-LLG-C4 substratum, 16 h
# Experimental: (§3) Cell migration and invasion. The cell migration assay was conducted using transwell migration chambers (8 μm pore size, Costar) in 10% serum-containing medium (2,14). Briefly, the membranes were coated on both sides with 40 μg/ml GST or with the β2 integrin ligand peptide […]-GST fusion (GST-LLG-C4) and blocked with complete medium. THP-1 cells (50 000/100 μl) were preincubated with the peptides for 1 h in serum-containing medium. The cells were allowed to migrate for 16 h and were then stained with crystal violet and counted (14). The HT1080 (20 000 cells/I100 μl) invasion assay was performed as the THP-1 migration, except that matrigel coated transwells (BD Biosciences) were used.
# pro-MMP-9 [4] = target: T1, pro-MMP-9 (Homo sapiens, UniProt P14780); test: Phage binding to pro-MMP-9 with competitors; conditions: competitor peptides 20 μM, gelatin 2.5 μg/ml; for Binding of the CRV-phage to pro-MMP-9, competition: TIMP-1 2.5 μg/ml
# T1 sequence (P14780 20-707 limits assumed): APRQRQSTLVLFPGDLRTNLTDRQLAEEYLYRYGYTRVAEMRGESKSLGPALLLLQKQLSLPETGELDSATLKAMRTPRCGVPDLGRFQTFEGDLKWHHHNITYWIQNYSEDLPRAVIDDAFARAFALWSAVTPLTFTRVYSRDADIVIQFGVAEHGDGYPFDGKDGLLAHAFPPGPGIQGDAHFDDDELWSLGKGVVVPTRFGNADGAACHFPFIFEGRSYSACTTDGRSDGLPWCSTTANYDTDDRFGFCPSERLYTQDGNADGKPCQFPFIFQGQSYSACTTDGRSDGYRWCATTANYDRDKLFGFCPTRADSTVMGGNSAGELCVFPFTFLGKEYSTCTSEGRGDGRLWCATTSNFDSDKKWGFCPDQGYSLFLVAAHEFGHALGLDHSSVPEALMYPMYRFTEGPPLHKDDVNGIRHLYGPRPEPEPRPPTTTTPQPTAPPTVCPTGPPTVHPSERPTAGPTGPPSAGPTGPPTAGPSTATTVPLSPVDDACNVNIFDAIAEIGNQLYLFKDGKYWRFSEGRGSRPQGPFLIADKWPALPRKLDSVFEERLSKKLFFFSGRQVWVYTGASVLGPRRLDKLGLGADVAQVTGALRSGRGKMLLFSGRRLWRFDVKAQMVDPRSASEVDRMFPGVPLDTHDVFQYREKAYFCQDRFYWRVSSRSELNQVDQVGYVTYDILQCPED
# Experimental: (§4) Phage display. Phage display selections were made using random peptide libraries CX7-10C and X9-10 (13). Purified human pro-MMP-9 (9) or recombinant MMP-9 C domain (2 μg/ml) was immobilized on microtiter wells and the wells were blocked with BSA. The phage were added in 50 mM Hepes (pH 7.5)/5 mM CaCl2/1 μM ZnCl2/150 mM NaCl/2% BSA. After three rounds of selection the phage sequences were determined (14). The phage binding specificity was tested with pro-MMPs or the recombinant domains (20 ng/well). The phage (10^8 transducing units/well) were allowed to bind in the absence or presence of competitor peptides (20 μM), gelatin (2.5 μg/ml) or TIMP-1 (2.5 μg/ml, Calbiochem) followed by washings with PBS/0.05% Tween20 (PBST). The phage were detected with a peroxidase-conjugated anti-phage antibody (Amersham Biosciences).
# CBD [5] = target: T2, CBD (Homo sapiens, UniProt P14780); test: Gelatin binding to immobilized CBD; conditions: biotinylated gelatin
# T2 construct: CBD (amino acids Gly^204-Gly^373) was amplified from MMP-9 cDNA; made in house; host or cells: E. coli
# T2 sequence (P14780 223-392 limits assumed): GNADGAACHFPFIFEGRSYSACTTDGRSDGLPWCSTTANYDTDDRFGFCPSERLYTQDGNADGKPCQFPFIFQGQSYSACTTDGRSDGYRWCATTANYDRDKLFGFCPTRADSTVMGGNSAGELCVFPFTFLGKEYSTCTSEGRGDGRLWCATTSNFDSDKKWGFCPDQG
# Experimental: (§5) Gelatin and CBD binding assays. Recombinant CBD or human plasma fibronectin (Calbiochem) (0.2 μg/ml in TBS) was immobilized in microtiter wells. The wells were saturated with 1% BSA-PBST. Biotinylated gelatin (0.2 μg/ml in 1% BSA-PBST) was added with or without peptides at the concentrations indicated or with an excess of unlabelled gelatin (10 μg/ml) and allowed to bind for 1 h. Bound gelatin was detected with streptavidin-peroxidase. CBD binding to immobilized fibronectin, the 110-kDa fragment of fibronectin (Upstate Biotechnology) or urea-denaturated human plasma vitronectin (17) (1 μg/well) was studied using biotinylated CBD (5 μg/ml) in 1% BSA-PBST in the presence or absence of 20 μM peptides.
# HT1080 fibrosarcoma = test: HT1080 invasion through matrigel; type: cell-based, human
# Experimental: as §3
# fibronectin = test: Gelatin binding to fibronectin; set-up: species or system human; conditions: data not shown
# fibronectin, sequence (P02751 306-608 limits assumed): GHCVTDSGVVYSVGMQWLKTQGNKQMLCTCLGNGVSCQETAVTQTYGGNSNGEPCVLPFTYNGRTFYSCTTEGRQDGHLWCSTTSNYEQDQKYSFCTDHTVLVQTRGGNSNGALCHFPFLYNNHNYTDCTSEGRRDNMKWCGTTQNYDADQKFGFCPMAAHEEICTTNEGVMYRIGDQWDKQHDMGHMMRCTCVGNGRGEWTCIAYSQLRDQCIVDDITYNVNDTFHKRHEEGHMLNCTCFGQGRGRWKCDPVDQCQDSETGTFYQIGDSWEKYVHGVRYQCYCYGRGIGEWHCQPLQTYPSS
# Experimental: as §5
# pro-MMP-9 [6] = target: T1, pro-MMP-9; test: Pro-MMP-9 activation in THP-1 cells, zymography; type: cell-based; conditions: THP-1, pro-MMP-3 and plasminogen, peptides 200 μM
# Experimental: Activation of MMP-9. THP-1 cells (40 000/100 μl) or confluent HT1080 cells were incubated for 16 h in the presence or absence of 2.5 μg/ml plasminogen, 0.5 μg/ml pro-MMP-3 (Oncogene Research Products), 40 nM PDBu, and the peptides at a 200 μM concentration unless otherwise indicated. Aliquots of the conditioned media were analyzed by gelatin zymography (9). […] The samples were analyzed by gelatin zymography.
# [7] = target: T3, aminophenylmercuric acetate (APMA)-activated MMP-2 (Homo sapiens, UniProt P08253); test: Gelatinase inhibition assay (gelatin degradation), MMP-2; type: biochemical; conditions: biotinylated gelatin substrate
# T3 sequence (P08253 110-660): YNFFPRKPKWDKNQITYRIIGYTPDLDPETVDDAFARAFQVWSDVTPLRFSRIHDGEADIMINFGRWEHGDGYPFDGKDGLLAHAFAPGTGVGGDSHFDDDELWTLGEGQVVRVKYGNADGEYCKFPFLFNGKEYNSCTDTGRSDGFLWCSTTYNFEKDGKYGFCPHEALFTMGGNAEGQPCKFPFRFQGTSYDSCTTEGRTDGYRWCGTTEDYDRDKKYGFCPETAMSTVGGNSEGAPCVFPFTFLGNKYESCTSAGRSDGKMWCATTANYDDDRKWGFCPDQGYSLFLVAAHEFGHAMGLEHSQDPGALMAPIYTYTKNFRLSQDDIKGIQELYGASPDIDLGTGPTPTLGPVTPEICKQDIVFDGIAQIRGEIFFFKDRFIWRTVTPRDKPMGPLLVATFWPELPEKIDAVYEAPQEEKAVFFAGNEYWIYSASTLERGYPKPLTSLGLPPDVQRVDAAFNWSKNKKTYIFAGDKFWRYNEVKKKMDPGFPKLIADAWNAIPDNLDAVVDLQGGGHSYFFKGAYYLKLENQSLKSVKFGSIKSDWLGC
# Experimental: as §2
# αM integrin I domain = αM integrin I domain (Homo sapiens, UniProt P11215); test: Pro-MMP-9 binding to αM integrin I domain
# αM integrin I domain, sequence (P11215 150-328 limits assumed): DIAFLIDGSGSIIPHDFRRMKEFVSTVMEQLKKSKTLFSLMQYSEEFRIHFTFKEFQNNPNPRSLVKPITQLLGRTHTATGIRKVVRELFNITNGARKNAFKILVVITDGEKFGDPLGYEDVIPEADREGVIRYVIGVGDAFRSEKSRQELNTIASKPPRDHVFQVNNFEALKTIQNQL
# Experimental: Pro-MMP-9 and gelatin binding to leukocyte αM integrin. Pro-MMP-9 binding to the αM I domain in the presence of peptides was studied as described (12). Gelatin binding to the pro-MMP-^9/αMβ2 integrin complex was studied by immobilizing the integrin αMβ2 (12) or αIIbβ3 as a control (Enzyme Research Laboratories, South Bend, Ind.) (1 μg/well) in TBS/1 mM CaCl2/1 mM MgCl2 followed by saturation of the wells with 1% BSA in PB ST. Pro-MMP-9 (100 ng/well) was incubated for 2 h and the unbound pro-MMP-9 was washed away. Biotinylated gelatin (2.5 μg/ml) was allowed to bind for 30 min at room temperature. Bound gelatin was detected with streptavidin-peroxidase.
# CBD [8] = target: T2, CBD; test: CBD binding to fibronectin and vitronectin, solid phase; conditions: 20 μM peptides, biotinylated CBD
# Experimental: as §5
# gelatinase [9] = conditions: 100 μM concentration; ref (15); cited from earlier work
# MMP-9 C domain = target: T4, MMP-9 C domain (Homo sapiens, UniProt P14780); test: CRV phage binding to recombinant MMP-9 C domain; conditions: TIMP-1 2.5 μg/ml
# T4 construct: MMP-9 (Asp^494-Asp^688) were expressed as described (16); made in house; host or cells: E. coli (β5 fragment)
# T4 sequence (P14780 513-707 limits assumed): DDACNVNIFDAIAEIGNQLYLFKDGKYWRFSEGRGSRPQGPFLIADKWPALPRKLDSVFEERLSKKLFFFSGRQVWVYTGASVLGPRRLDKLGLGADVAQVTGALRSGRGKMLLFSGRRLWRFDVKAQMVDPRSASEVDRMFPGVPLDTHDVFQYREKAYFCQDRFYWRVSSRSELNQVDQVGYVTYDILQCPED
# Experimental: as §4
# Expression of the MMP and integrin domains. CBD (amino acids Gly^204-Gly^373) was amplified from MMP-9 cDNA with the oligonucleotides 5′-[…]-3′ and 5′-[…]-3′ incorporating NdeI and PstI restriction sites. The PCR product was ligated into pTWIN vector (New England Biolabs). CBD was expressed in E. coli and purified using gelatin-sepharose (Amersham Biosciences). For some experiments, CBD was biotinylated with sulfo-NHS-LC-biotin (Pierce). The C-terminal domains of MMP-2 (Glu^438-Cys^631) and MMP-9 (Asp^494-Asp^688) were expressed as described (16). […]
# CBD [10] = target: T2, CBD; test: Pepspot membrane assay of CBD binding; conditions: 0.2 μg/ml biotinylated CBD
# Experimental: Peptide synthesis. The phage peptides were initially prepared in a recombinant form using intein fusions (12,15). Chemical peptide synthesis was done using Fmoc-chemistry and the purity and integrity of the peptides was verified by mass spectroscopy (15). The peptides were dissolved in water, except the CRV and DDGW peptides, which were dissolved in 50 mM NaOH at a 10 mM concentration and then diluted into PBS to neutralize the pH. The […] and […] peptides were synthesized on a cellulose membrane. The membrane was blocked with 3% BSA in TBS/0.05% Tween 20, and incubated with 0.2 μg/ml biotinylated CBD. Bound CBD was detected using peroxidase-conjugated streptavidin (1:10 000 dilution, Pierce) and chemiluminescence detection.
compound,measurement,setting,value
O=C(O)[C@@H](Cc1ccccc1)NS(=O)(=O)c1ccc(-c2ccccc2)cc1 [InhI],Inhibition of pericellular gelatinolysis,HT1080 cells,inhibited
same,Level of cell surface-bound uPA,"uPAR [1]; HT1080, InhI 20 μM",reduced
same,Inhibition of uPAR cleavage,uPAR [1],inhibited uPAR cleavage
same,Inhibition of uPAR cleavage,uPAR [2],inhibited
N=C(N)c1ccccc1 [benzamidine],Inhibition of uPAR cleavage,uPAR [1],not
ADGACGYGRFSPPCGAAG,Inhibition of MMP-9 activity in gelatin degradation assay,trypsin-activated MMP-9,inhibited
same,Inhibition of pericellular gelatinolysis,HT1080 cells,inhibited
same,Gelatinase inhibitor strength relative to CTT,gelatinase [3],weaker gelatinase inhibitor than CTT
same,Inhibition of THP-1 migration,THP-1 monocytic cells,inhibitory effect
same,"Binding of PPC peptide-bearing phage to pro-MMP-9, competition",pro-MMP-9 [4],inhibited
same,"Binding of the CRV-phage to pro-MMP-9, competition",pro-MMP-9 [4],not
same,Inhibition of gelatin binding to immobilized CBD,CBD [5],inhibited gelatin binding to immobilized CBD in a dose dependent manner
same,IC50,"HT1080 fibrosarcoma; matrigel, read-out: Concentration required to achieve the same efficacy (50% inhibition of HT1080 invasion)",500 µM
same,Effect on gelatin binding to fibronectin,fibronectin,no effect
same,Effect on pro-MMP-9 activation,pro-MMP-9 [6],augmented
same,Inhibition of MMP-2 activity in gelatin degradation assay,[7],inhibited
same,Effect on interaction of MMP-9 with the leukocyte αM integrin I domain,αM integrin I domain,do not affect
same,Higher pro-MMP-9 binding to the I domain in the presence of peptide,αM integrin I domain; typically,20-50%
same,Inhibition of CBD binding to fibronectin and vitronectin,CBD [8],inhibited
"ADGACPSYGPRFGCGAAG [scr. PPC, scrambled control peptide of PPC, reference compound]",Inhibition of MMP-9 activity in gelatin degradation assay,trypsin-activated MMP-9,no effect
same,Inhibition of MMP-2 activity in gelatin degradation assay,[7],no effect
CTTHWGFTLC [reference compound],Inhibition of pericellular gelatinolysis,HT1080 cells,inhibited
same,Inhibition of THP-1 migration,THP-1 monocytic cells,inhibitory effect
same,"Binding of PPC peptide-bearing phage to pro-MMP-9, competition",pro-MMP-9 [4],not
same,"Binding of the CRV-phage to pro-MMP-9, competition",pro-MMP-9 [4],not
same,Inhibition of gelatin degradation,gelatinase [9],completely inhibits
same,Inhibition of uPAR cleavage,uPAR [2],inhibited
same,Inhibition of gelatin binding to immobilized CBD,CBD [5],not
same,Inhibition of HT1080 invasion into matrigel,HT1080 fibrosarcoma; 200 μM concentration,50%
TIMP-1: tissue inhibitor of MMPs (Calbiochem),"Binding of the CRV-phage to pro-MMP-9, competition",pro-MMP-9 [4],could not compete
same,"CRV phage binding to the MMP-9 C domain, competition",MMP-9 C domain,could not compete
TTPNSLLVSWQPPRARIT [PPC-like fibronectin peptide],Binding of biotinylated CBD to peptide on pepspot membrane,CBD [10],bound
aprotinin,Inhibition of uPAR cleavage,uPAR [1],not
same,Inhibition of uPAR cleavage,uPAR [2],not
gelatin,"Binding of PPC peptide-bearing phage to pro-MMP-9, competition",pro-MMP-9 [4],inhibited
same,"Binding of the CRV-phage to pro-MMP-9, competition",pro-MMP-9 [4],not
